How the values were obtained:
[1] = biological target: T1, 24OHase in OVCAR-3 cells (Homo sapiens, UniProt Q07973); assay: Metabolic analysis of 25(OH)D3: 24,25(OH)2D3 production; assay type: cell-based; conditions: for amount of 24,25(OH)2D3 relative to 0 hr: first experiment
T1 construct: Also, 24OHase is expressed in OVCAR-3 cells; endogenous in cells; host or cells: OVCAR-3
T1 sequence (Q07973 36-514): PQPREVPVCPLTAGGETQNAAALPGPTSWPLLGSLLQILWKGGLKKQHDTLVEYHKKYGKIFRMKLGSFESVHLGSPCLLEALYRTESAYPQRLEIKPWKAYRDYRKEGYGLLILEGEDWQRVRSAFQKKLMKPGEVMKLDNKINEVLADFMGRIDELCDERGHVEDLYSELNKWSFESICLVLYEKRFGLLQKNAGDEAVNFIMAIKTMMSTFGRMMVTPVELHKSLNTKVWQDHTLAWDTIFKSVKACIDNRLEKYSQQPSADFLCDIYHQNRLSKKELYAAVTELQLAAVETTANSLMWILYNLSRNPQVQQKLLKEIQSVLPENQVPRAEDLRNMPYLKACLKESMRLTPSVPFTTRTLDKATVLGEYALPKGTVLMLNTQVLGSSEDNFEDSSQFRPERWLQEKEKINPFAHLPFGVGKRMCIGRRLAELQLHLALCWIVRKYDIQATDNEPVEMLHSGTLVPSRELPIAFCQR
Protocol: (§1) OVCAR-3 cells (1.5×10^6 cell/flask) were plated on T25 culture flasks. One day after plating, cells were treated with 500 nM 25(OH)D3 in RPMI 1640 medium supplemented with 10% FBS, 10 μg/ml insulin, 0.25% glucose and antibiotics (100 IU/ml penicillin, 100 μg/ml streptomycin). After 0, 3 or 24 hr, the medium was collected and the cell monolayer was extracted with 1 ml methanol. After 15 min incubation at room temperature, the methanol was transformed into the same tube than the sample medium. The samples for the measurement of the 25(OH)D3 metabolites were purified using the acetonitrile-C 18 Sep-Pak (Waters Corporation, Milford, Mass.) procedure (Turnbull, H., Trafford, D. J., Makin, H. L., “A Rapid and Simple Method for the Measurement of Plasma 25-hydroxyvitamin D2 and 25-hydroxyvitamin D3 Using Sep-Pak C 18 Cartridges and a Single High-Performance Liquid Chromatographic Step,” Clin. Chim. Acta., 120:65-76 (1982)) followed by separation of the metabolites by a high-performance liquid chromatography. […] The second measurement was done following the same procedure except dextran charcoal-treated FBS was used instead of FBS, 24OHase inhibitor (200 nM VID400) was used with the 500 nM 25(OH)D3 treatment, and the samples were collected only after 0 and 24 hr.

[2] = biological target: T2, 1αOHase in OVCAR-3 cells (Homo sapiens, UniProt O15528); assay: Metabolic analysis of 25(OH)D3: 1,25(OH)2D3 production; assay type: cell-based
T2 construct: showing the expression of 1αOHase in OVCAR-3 cells; endogenous in cells; host or cells: OVCAR-3
T2 sequence (O15528 1-508): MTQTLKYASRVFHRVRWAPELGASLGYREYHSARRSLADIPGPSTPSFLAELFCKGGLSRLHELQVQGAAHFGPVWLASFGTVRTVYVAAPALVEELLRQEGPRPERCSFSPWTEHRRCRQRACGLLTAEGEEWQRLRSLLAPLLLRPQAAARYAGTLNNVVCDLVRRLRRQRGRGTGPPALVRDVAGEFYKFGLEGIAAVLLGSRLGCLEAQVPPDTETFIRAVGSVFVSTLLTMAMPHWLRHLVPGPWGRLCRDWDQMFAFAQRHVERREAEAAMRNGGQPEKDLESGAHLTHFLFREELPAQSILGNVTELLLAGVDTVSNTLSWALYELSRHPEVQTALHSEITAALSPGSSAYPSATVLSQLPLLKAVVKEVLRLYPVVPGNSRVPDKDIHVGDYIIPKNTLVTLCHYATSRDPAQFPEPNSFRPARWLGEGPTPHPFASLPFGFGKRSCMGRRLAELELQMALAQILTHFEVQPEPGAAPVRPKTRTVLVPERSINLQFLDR
Protocol: as §1

[3] = 500 nM 25(OH)D3, 0 hr, experiment I (FBS)
[4] = 500 nM 25(OH)D3, 3 hr, experiment I (FBS)
[5] = 500 nM 25(OH)D3, 24 hr, experiment I (FBS)
[6] = 500 nM 25(OH)D3, 24 hr, experiment II (dextran charcoal-treated FBS)
[7] = 200 nM VID400 + 500 nM 25(OH)D3, 24 hr, second experiment
[8] = 500 nM 25(OH)D3 + 200 nM VID400, 24 hr, experiment II (dextran charcoal-treated FBS)

production of 24,25(OH)2D3 compared to 500 nM 25(OH)D3 treatment alone [1, 7] | 24,25(OH)2D3 [1, 8] | 1,25(OH)2D3 [2, 8] | SMILES | 24,25(OH)2D3 [1, 3] | 24,25(OH)2D3 ([1]; 500 nM 25(OH)D3, 0 hr, experiment II (dextran charcoal-treated FBS)) | 24,25(OH)2D3 [1, 4] | amount of 24,25(OH)2D3 relative to 0 hr ([1]; 500 nM 25(OH)D3, 3 hr) | 24,25(OH)2D3 [1, 5] | 24,25(OH)2D3 [1, 6] | amount of 24,25(OH)2D3 relative to 0 hr ([1]; 500 nM 25(OH)D3, 24 hr) | concentration of 24,25(OH)2D3 relative to 0 hr ([1]; 500 nM 25(OH)D3, 24 hr, second experiment) | 1,25(OH)2D3 [2, 3] | 1,25(OH)2D3 [2, 4] | 1,25(OH)2D3 [2, 5] | 1,25(OH)2D3 [2, 6] | effect on production of 1,25(OH)2D3 [2, 7]
 |  |  | C=C1CC[C@H](O)C/C1=C/C=C1\CCC[C@]2(C)[C@@H]([C@H](C)CCCC(C)(C)O)CC[C@@H]12 [25(OH)D3, monohydroxyvitamin D3] | 6 nM | 1 nM | 24 nM | 4 times | 112 nM | 27 nM | 18 fold | 27 times | 23 pM | 37 pM | 33 pM | 28 pM | 
reduced to one-third | 8 nM | 27 pM | O=C(NC[C@@H](c1ccccc1)n1ccnc1)c1ccc(-c2ccc(Cl)cc2)cc1 [VID400, 2-(R)-4′-Chlorobiphenyl-4-carboxylic acid (2-imidazol-1-yl-2-phenyl-ethyl)-amide] |  |  |  |  |  |  |  |  |  |  |  |  | did not have an effect on production of 1,25(OH)2D3

Reference: patent publication US20060074109A1, “Use of inhibitors of 24-hydroxylase in the treatment of cancer” (Sapphire Therapeutics, Inc., priority 2004, published 2006)
